Laboratory results published in patent US20170182026A1, “Anti-Metastasis Treatment of Melanoma” (University Hospitals Cleveland Medical Center, priority 2015, published 2017).
“Also recorded” adds a separate entry of the source.

Assays:
[1] = tested on: connexins; assay: Connexin protein levels after autophagy blockade; assay type: cell-based; conditions: A375.52 cells, treatment over 24 hours, FIG. 4B
Experimental: FIGS. 4A&B presents exemplary data showing an assessment of connexin inhibition on autophagic flux and autophagic blockade on connexin protein levels. […] Tubulin as a loading control. H2O=water control, CBX=Carbenoxolone, Hep=1-Eleptanol, Oct=1-octanol, D=DMSO, HCQ=Hydroxychloroquine. Connexin protein levels were also assessed for possible modification of autophagic flux. For this purpose, hydroxychloroquine, a known autophagy inhibitor and clinically available medication was used. […] Specific autophagy inhibition may be assessed using shRNA (infra).

[2] = tested on: A375.52 cells; assay: Scratch assay, cell migration; assay type: cell-based; conditions: over 24 hours, FIG. 5C
Experimental: (§1) FIG. 5A-C presents exemplary data showing combinatory effects of hydroxychloroquine (HCQ) and 1-octanol on melanoma cell viability and death. […] 4-methyl-heptanol (1 mM) as negative control.
(§2) The effect of a combined inhibition of GJIC and autophagy was assessed, making use of Promega Cell-Titer Glo and Trypan blue exclusion assay to assess cell viability and cell death, respectively (FIG. 5A and FIG. 5B). […] (FIG. 5C) Cell migration was measured as distance traveled from the edge of a wound and not as percent wound closure.

[3] = tested on: A375.52; assay: Trypan blue exclusion assay, cell death; assay type: cell-based; conditions: A375.52, 72 hours, FIG. 5B
Experimental: as §1, §2

[4] = tested on: gap junction intercellular communication; assay: Microinjection imaging assay, spread of reporter dye; assay type: cell-based; conditions: time-lapse microscopy, FIGS. 7A&B
Excerpt: FIGS. 7A&B presents exemplary data Showing cell-cell communication in Glioblastoma Stem Cells (GSCs) cells with live imaging.
The functional status of overall connexin activity after autophagy inhibition will be addressed. […] To measure this, a microinjection imaging assay will be used. One cell is co-injected with a large fluorescent IgG that is unable to leave the parental cell along with a reporter dye that is capable of spreading to adjacent cells. Combining this with time-lapse microscopy, spread of the reporter dye (Lucifer yellow, 2NBDG-a fluorescent glucose analog) can be monitored, see FIGS. 7A&B. The spread of the dye is attenuated when using gap junction inhibitors, including carbenoxolone and 1-octanol. Utilization of multiple assessments of the gap junction intercellular communication, i.e. mRNA expression, protein levels and functional activity levels may pinpoint the particular modulation of GJIC that occurs with autophagic blockade in melanoma cells. […] Additionally, shRNA against shATG5, another key autophagy protein, could be utilized to determine if there were different effects.

[5] = tested on: melanoma cell lines; assay: Promega Cell-Titer Glo cell viability; assay type: cell-based; conditions: two melanoma cell lines, 72 hours, FIG. 5A
Experimental: as §1, §2

[6] = tested on: autophagic flux; assay: Western blot of LC3 II/I ratio and p62 levels after connexin (GJIC) inhibitors; assay type: cell-based; conditions: A375.52 melanoma cells, treatment over 24 hours, FIG. 4A
Excerpt: FIGS. 4A&B presents exemplary data showing an assessment of connexin inhibition on autophagic flux and autophagic blockade on connexin protein levels. […] Tubulin as a loading control. H2O=water control, CBX=Carbenoxolone, Hep=1-Eleptanol, Oct=1-octanol, D=DMSO, HCQ=Hydroxychloroquine.
Connexin protein levels were examined within various melanoma cell lines, see FIG. 3. […] Connexins 43 and 26 has been studied previously in melanoma, and both also have shown relationships with autophagy. […] GJIC inhibition was explored, using three known connexin inhibitors, 1-octanol, 1-heptanol and carbenoxolone, the former of which is clinically available and is labeled as a food additive by the Food and Drug Administration, which is known to affect autophagic flux. GJIC inhibition was measured by changes noted in LC3 II/I ratios and p62 levels. (FIG. 4A).

[7] = tested on: autophagic flux; conditions: pharmacologic blockage of GJIC, reference [21]; cited from earlier work
[8] = tested on: connexins 26, 32, and 43; conditions: reference [49]; cited from earlier work
[9] = tested on: Cx 36 and 50; conditions: reference [49]; cited from earlier work

CCN(CCO)CCCC(C)Nc1ccnc2cc(Cl)ccc12 (racemic) [hydroxychloroquine, (RS)-2-{{4-{(7-chloroquinolin-4-yl)amino}pentyl}(ethyl)amino}ethanol]
levels of connexins 43 and 46 [1]: opposite effects on levels of connexins 43 and 46 | protein levels of connexins [1]: affects the protein levels of specific connexins; also recorded: does affect protein levels of connexins, but not consistently | cell migration (distance traveled from the edge of a wound) [2]: no effect

CCCCCCCCO [1-octanol]
cell death [3]: only small effects | spread of the reporter dye (Lucifer yellow, 2NBDG) [4]: attenuated | cell migration (distance traveled from the edge of a wound) [2]: no effect | cell viability [5]: only small effects | p62 levels [6]: increased p62 levels | total LC3 levels [6]: changes in total LC3 levels

CC1(C)[C@@H](O)CC[C@]2(C)[C@H]3C(=O)C=C4[C@H]5C[C@@](C)(C(=O)O)CC[C@]5(C)CC[C@@]4(C)[C@]3(C)CC[C@@H]12 [18α glycyrrhetinic acid]
autophagic flux [7]: decreased autophagic flux

CC1(C)[C@@H](OC(=O)CCC(=O)O)CC[C@]2(C)[C@H]3C(=O)C=C4[C@@H]5C[C@@](C)(C(=O)O)CC[C@]5(C)CC[C@@]4(C)[C@]3(C)CC[C@@H]12 [carbenoxolone]
spread of the reporter dye (Lucifer yellow, 2NBDG) [4]: attenuated | LC3 II/I ratio [6]: without clear changes in LC3 II/I ratio | p62 levels [6]: decreased p62 levels somewhat

OC(c1cc(C(F)(F)F)nc2c(C(F)(F)F)cccc12)C1CCCCN1 (stereo not drawn) [mefloquine]
block of connexin activity [8]: would require much higher doses to affect | block of connexin activity [9]: block activity
